Measured values: patent US20110144056A1, “PYRAZOLE DERIVATIVES USEFUL AS INHIBITORS OF FAAH” (priority 2008, published 2011)

biological target: T1, FAAH (Homo sapiens, UniProt O00519); test: FAAH enzyme assay, lysate of CHO cells expressing human FAAH; type: biochemical; settings: cell lysate, read-out: FAAH Human Cell Lysate IC50
T1 construct: The full length FAAH was subcloned into the mammalian expression vector, pcDEF.neo; expressed in transfected cells; cDNA from Origene
T1 sequence (O00519 1-579): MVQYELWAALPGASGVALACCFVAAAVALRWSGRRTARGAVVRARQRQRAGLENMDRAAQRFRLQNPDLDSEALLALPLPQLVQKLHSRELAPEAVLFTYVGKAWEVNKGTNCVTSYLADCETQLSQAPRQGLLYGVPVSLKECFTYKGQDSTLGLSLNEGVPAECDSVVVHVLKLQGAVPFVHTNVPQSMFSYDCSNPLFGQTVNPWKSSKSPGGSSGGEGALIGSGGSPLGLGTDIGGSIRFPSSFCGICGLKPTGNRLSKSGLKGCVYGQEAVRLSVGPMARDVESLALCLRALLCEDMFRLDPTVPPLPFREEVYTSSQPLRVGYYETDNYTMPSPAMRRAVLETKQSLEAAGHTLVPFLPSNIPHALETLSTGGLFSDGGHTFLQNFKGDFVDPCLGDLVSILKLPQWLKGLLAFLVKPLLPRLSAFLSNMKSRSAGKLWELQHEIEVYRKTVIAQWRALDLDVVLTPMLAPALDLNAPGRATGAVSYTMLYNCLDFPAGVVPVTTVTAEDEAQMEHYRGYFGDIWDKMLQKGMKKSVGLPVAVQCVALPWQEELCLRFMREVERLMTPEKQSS
Description: To assist in assay development stable cell lines for human, murine and rat full length FAAH were developed. Human FAAH cDNA (Accession No: NM_001441.1) was purchased from Origene (Rockville, Md.). The full length FAAH was subcloned into the mammalian expression vector, pcDEF.neo, using XbaI and […] restriction sites and used for stable cell line generation.
CHO cells expressing FAAH were used to prepare either crude cell lysate or microsome fractions. To harvest cells, tissue culture media was decanted, the monolayer washed three times with Ca^++Mg^++ free PBS and cells recovered after 15 min in enzyme free dissociation media (Millipore Corp, Billerica, Mass.). Cells were collected by centrifuging at 2000 rpm for 15 min. and the cell pellet re-suspended with 50 mM HEPES (pH 7.4) containing 1 mM EDTA and the protease inhibitors aprotinin (1 mg/ml) and leupeptin (100 μM). The suspension was sonicated at 4° C. and the cell lysate recovered after centrifuging at 12,000×g (14,600 rpm, SS34 rotor) for 20 min at 4° C. to form a crude pellet of cell debris, nuclei, peroxisomes, lysosomes, and mitochondria; the supernatant or cell lysate was used for FAAH enzyme assay. In some cases, microsomes fractions enriched in FAAH were prepared by centrifuging the cell lysate further at 27,000 rpm (100,000×g) in SW28 rotor for 50 minutes at 4° C. The pellet containing FAAH-enriched microsomes was re-suspend in 50 mM HEPES, (pH 7.4) 1 mM EDTA, and any remaining DNA sheared by passage of material through a 23 gauge needle and aliquots of enzyme were store at −80° C. prior to use.
(American Radiolabeled Chemicals; 1 mCi/ml) with FAAH (Life Sciences (1995), 56, 1999-2005 and Journal of Pharmacology and Experimented Therapeutics (1997), 283, 729-734), Analytical. Biochemistry (2003), 318, 270-5. In addition, routine assays were performed monitoring hydrolysis of arachidonyl-7-amino-4-methylcoumarin amide (AAMCA) by following increase in fluorescence upon release of 7-amino 4-methyl coumarin (λEX=355 nm, (λEM=460 nm). Analytical. Biochemistry (2005). 343, 143-51.
Assays are performed on either cell lysate or microsome fractions prepared as described or in whole cell format employing either the fluorescent substrate AAMCA (Cayman chemical, Ann Arbor, Mich.,) or ^3H-anandmaide ([ETHANOLAMINE-1-3H]American Radiolabeled Chemicals; 1 mCi/ml). The cell lysate or microsome assay is performed in Costar black wall, clear bottom plates by adding FAAH_CHO (whole cell, cell lysate or microsome) in assay buffer (50 mM Phosphate, pH 8.0, 1 mM EDTA, 200 mM KCl, 0.2% glycerol, 0.1% fatty acid free BSA) to each well, followed by either DMSO or compound and allowed to incubate at 22-25° C. for fifteen minutes. AAMCA substrate was used to achieve a final concentration of 1 μM and reaction allowed to proceed at room temperature for 1-3 hours. Fluorescent release as a measure of FAAH activity was monitored by reading the plate in a CytoFluor Multiplate Reader ([…]). Whole cell assay is conducted with cells harvested after rinsing tissue culture flasks three times with Ca^++Mg^++ free PBS, incubating for 10 mm in Enzyme free dissociation media and centrifuging for 5 minutes at 1,000 rpm in table top centrifuge. Cells are resuspended in assay buffer at desired cell number in (4×10^4 cells/assay in 96-well format; 1×10^4 cells/assay in 384-well format) and assayed as described.
Alternatively, assays are performed using anandamide [ethanolamine 1-^3H] (specific activity of 10 Ci/mmol) diluted with cold anandamide to achieve a final assay concentration of 1 μM anandamide (˜50,000 cpm). Enzyme (CHO cell lysate, brain or liver homogenate) is incubated in assay buffer (50 mM Phosphate, pH 8.0, 1 mM EDTA, 200 mM KCl, 0.2% glycerol, 0.1% fatty acid free BSA) with inhibitor at 25° C. for 30 minutes. The reaction was terminated by addition of 2 volumes of chloroform:methanol (1:1) and mixed by vortexing. […]

| Compound | IC50 [nM] |
| --- | --- |
| 6-{4-[(5-chloropyridin-2-yl)sulfanyl]-1-(2-fluoroethyl)-1H-pyrazol-3-yl}-2-(difluoromethyl)quinoline [Example 333] | 79 |
| O=C1NCCc2cc(-c3nn(-c4ccc(F)cc4)cc3Sc3ccc(Cl)cc3)ccc21 [Example 308, 6-{4-[(4-chlorophenyl)sulfanyl]-1-(4-fluorophenyl)-1H-pyrazol-3-yl}-3,4-dihydroisoquinolin-1(2H)-one] | 18 |
| CCN1CCc2cc(-c3nn(-c4ccc(F)cc4)cc3Sc3ccc(Cl)cc3)ccc2C1=O [Example 309, 6-{4-[(4-chlorophenyl)sulfanyl]-1-(4-fluorophenyl)-1H-pyrazol-3-yl}-2-ethyl-3,4-dihydroisoquinolin-1(2H)-one] | 16 |
| O=C1NCCc2cc(-c3n[nH]cc3Sc3ccc(Cl)cc3)ccc21 [Example 310, 6-{4-[(4-chlorophenyl)sulfanyl]-1H-pyrazol-3-yl}-3,4-dihydroisoquinolin-1(2H)-one] | 72 |
| O=C1NCCc2cc(-c3nn(CCF)cc3Sc3ccc(Cl)cc3)ccc21 [Example 311] | 91 |
| O=c1[nH]cnc2cc(-c3n[nH]cc3Sc3ccc(Cl)cc3)ccc12 [Example 312, 7-{4-[(4-chlorophenyl)sulfanyl]-1H-pyrazol-3-yl}-quinazolin-4(3H)-one] | 228 |
| O=c1[nH]cnc2cc(-c3nn(-c4ccc(F)cc4)cc3Sc3ccc(Cl)cc3)ccc12 [Example 313, 7-{4-[(4-chlorophenyl)sulfanyl]-1-(4-fluorophenyl)-1H-pyrazol-3-yl}quinazolin-4(3H)-one] | 8.7 |
| O=c1c2ccc(-c3nn(C4CC4)cc3Sc3ccc(Cl)cc3)cc2ncn1C1CC1 [Example 314, 7-{4-[(4-chlorophenyl)sulfanyl]-1-cyclopropyl-1H-pyrazol-3-yl}-3-cyclopropylquinazolin-4(3H)-one] | 202 |
| O=c1[nH]cnc2cc(-c3nn(C4CC4)cc3Sc3ccc(Cl)cc3)ccc12 [Example 315, 7-{4-[(4-chlorophenyl)sulfanyl]-1-cyclopropyl-1H-pyrazol-3-yl}quinazolin-4(3H)-one] | 86 |
| CN(C)C(=O)c1ccc2cc(-c3n[nH]cc3Sc3ccc(Cl)cn3)ccc2n1 [Example 330, 6-{4-[(5-chloropyridin-2-yl)sulfanyl]-1H-pyrazol-3-yl}-N,N-dimethylquinoline-2-carboxamide] | 5.8 |
| CN(C)C(=O)c1ccc2cc(-c3nn(C4CC4)cc3Sc3ccc(Cl)cn3)ccc2n1 [Example 331, 6-{4-[(5-chloropyridin-2-yl)sulfanyl]-1-cyclopropyl-1H-pyrazol-3-yl}-N,N-dimethylquinoline-2-carboxamide] | 77 |
| FC(F)c1ccc2cc(-c3n[nH]cc3Sc3ccc(Cl)cn3)ccc2n1 [Example 332] | 268 |
| O=C1NCCc2cc(-c3nn(-c4ccccn4)cc3Sc3ccc(Cl)cc3)ccc21 [Example 335] | 8 |
| CCN1CCc2cc(-c3nn(-c4ccccn4)cc3Sc3ccc(Cl)cc3)ccc2C1=O [Example 338] | 6 |
| O=C1c2ccc(-c3nn(-c4ccccn4)cc3Sc3ccc(Cl)cc3)cc2CCN1CCF [Example 339] | 2.7 |
| CCN1CCc2cc(-c3nn(CC)cc3Sc3ccc(Cl)cc3)ccc2C1=O [Example 340] | 25 |
| CCn1cc(Sc2ccc(Cl)cc2)c(-c2ccc3c(c2)CCN(CCF)C3=O)n1 [Example 341] | 47 |
| CCn1cc(-n2cc(Sc3ccc(Cl)cc3)c(-c3ccc4c(c3)CCNC4=O)n2)cn1 [Example 344] | 16 |
| O=C1CCc2cc(-c3nn(-c4ccccn4)cc3Sc3ccc(Cl)cc3)ccc2N1 [Example 345] | 36 |
| O=C1CCc2cc(-c3nn(-c4ccccn4)cc3Sc3ccc(Cl)cc3)ccc2N1CCF [Example 346] | 15 |
| CCn1cc(-n2cc(Sc3ccc(Cl)cc3)c(-c3ccc4c(=O)[nH]cnc4c3)n2)cn1 [Example 347] | 12 |
| CCn1cc(-n2cc(Sc3ccc(Cl)cc3)c(-c3ccc4c(=O)n(-c5cnn(CC)c5)cnc4c3)n2)cn1 [Example 348] | 36 |

| Compound | IC50 [nM] |
| --- | --- |
| CC(C)(O)c1ccc(-c2nn(-c3ccc(F)cn3)cc2Sc2ccc(Cl)cc2)nn1 [Example 349] | 59 |
| CC(C)(O)c1ccc(-c2nn(-c3ccc(F)cn3)cc2Sc2ccc(Cl)cn2)nn1 [Example 350] | 103 |
| CC(C)(O)c1ccc(-c2nn(-c3cnn(C4CC4)c3)cc2Sc2ccc(Cl)cc2)nn1 [Example 351] | 246 |
| CCOC(=O)c1ccc2cc(-c3nn(C)cc3Sc3ccc(Cl)cc3)ccc2n1 [Example 352] | 2.2 |
| Cn1cc(Sc2ccc(Cl)cc2)c(-c2ccc3nc(C(N)=O)ccc3c2)n1 [Example 353] | 0.47 |
| CCOC(=O)c1ccc2cc(-c3n[nH]cc3Sc3ccc(Cl)cc3)ccc2n1 [Example 354] | 0.93 |
| CCNC(=O)c1ccc2cc(-c3n[nH]cc3Sc3ccc(Cl)cc3)ccc2n1 [Example 355] | 1.38 |
| CC(C)(O)c1ccc2cc(-c3nn(CCF)cc3Sc3ccc(Cl)cc3)ccc2n1 [Example 357] | 121 |
| CC(C)(O)c1ccc2cc(-c3n[nH]cc3Sc3ccc(Cl)cc3)ccc2n1 [Example 358] | 423 |
| CC(=O)N1CCc2cc(-c3n[nH]cc3Sc3ccc(Cl)cc3)ccc2C1 [Example 359] | 101 |
| CC(=O)N1CCc2cc(-c3nn(C4CC4)cc3Sc3ccc(Cl)cc3)ccc2C1 [Example 360] | 9.8 |
| CC(=O)N1CCc2cc(-c3nn(CCF)cc3Sc3ccc(Cl)cc3)ccc2C1 [Example 362] | 48 |
| N#Cc1ccc2cc(-c3n[nH]cc3Sc3ccc(Cl)cc3)ccc2n1 [Example 363] | 23 |
| Cn1cc(Sc2ccc(Cl)cc2)c(-c2ccc3nc(C#N)ccc3c2)n1 [Example 364] | 131 |
| CCNC(=O)c1ccc2cc(-c3nn(CCF)cc3Sc3ccc(Cl)cc3)ccc2n1 [Example 366] | 7.2 |
| CCNC(=O)c1ccc2cc(-c3nn(CC(F)F)cc3Sc3ccc(Cl)cc3)ccc2n1 [Example 367] | 20 |
| CCNC(=O)c1ccc2cc(-c3nn(C(C)C)cc3Sc3ccc(Cl)cc3)ccc2n1 [Example 368] | 24 |
| CCNC(=O)c1ccc2cc(-c3nn(CC4CC4)cc3Sc3ccc(Cl)cc3)ccc2n1 [Example 369] | 1.6 |
| CCNC(=O)c1ccc2cc(-c3nn(CC(C)C)cc3Sc3ccc(Cl)cc3)ccc2n1 [Example 370] | 12 |
| CCOC(=O)c1cnc2cc(-c3nn(CCF)cc3Sc3ccc(Cl)cc3)ccc2c1 [Example 371] | 4 |
| OCc1ccc2cc(-c3nn(CCF)cc3Sc3ccc(Cl)cc3)ccc2n1 [Example 372] | 30 |
